Reference: PMC11284788, “NN1213 – A Potent, Long-Acting, and Selective Analog of Human Amylin” (Journal of Medicinal Chemistry, 2024)

Tests used:
cAMY1R = experiment: Whole-cell competition binding, cAMY1R; settings: IC50 for the CTR divided by that of the AMYR, canine receptors
[1] = in vivo, iv
Procedure: (§1) Blood samples were collected at fixed time points postdose to determine full PK profiles. Plasma samples were analyzed by ELISA. Plasma concentration–time profiles were analyzed by noncompartmental analysis.
Rabbits: Female rabbits (New Zealand white, Charles River; 21–23 weeks; 2.5–3.5 kg) were group-
housed (10 per cage) in normal day–night rhythm from arrival and had free access to food and water.
The rabbits were treated against coccidiosis during their 5-week acclimation period upon arrival. Iv
dosing was performed as a bolus injection into an ear vein with a dosing volume of 0.1 mL/kg. The
dosing solution was at room temperature before injection. Venous blood sampling was performed
directly through puncture of an ear vein using a needle. A full plasma concentration–time profile was
obtained from each animal.
Blood (300 µL) was collected directly into test
tubes containing EDTA buffer (Microvette CB 300 K2E). Samples were kept on wet ice until
centrifugation (10 min, 4 °C, 3000 rpm). Plasma (100 µL) was transferred immediately to Micronic
tubes and kept at –20 °C until analysis.
Plasma analysis: Plasma samples were analyzed by a commercially available kit (Millipore, Human
Amylin ELISA, cat. #EZHA-52-K). […]
was applied and the plate was read on a fluorescent reader with an excitation/emission wavelength of
samples. The lower limit of quantification (LLOQ) was 100–500 pM.

Pharmacokinetics in rats = settings: male, Sprague-Dawley, rat, plasma, sc, 5 nmol/kg
Procedure: as §1
Pharmacokinetic Evaluation. Rats: Male Sprague-Dawley rats (Taconic, Europe; body weight
approximately 400 g) were group-housed under controlled temperature conditions (20 °C ± 2 °C).
Blood was collected from the sublingual vein and rats were acclimated to handling on three separate
occasions prior to blood collection.
the tail vein of five rats. Sc injections were performed in the neck of another group of five rats. The
dosing volume was 2 mL/kg.
collected into test tubes containing EDTA for stabilization and kept on ice until centrifugation. Each
blood sample was 100 µL. Plasma was separated from whole blood by centrifugation and was stored at
–20 °C or lower until analysis.

cCTR = experiment: Species-specific cAMP assay, cCTR; settings: cAMP HTRF, transiently transfected BHK cells, 30 min room temperature, five experiments
hAMY1R = hAMY1R (Homo sapiens, UniProt O60894+P30988); experiment: Species-specific cAMP assay, hAMY1R; settings: ratio of cAMP EC50 values, human receptors
cAMY3R = experiment: Species-specific cAMP assay, cAMY3R; settings: for Ratio CTR/AMY3R (canine, functional): ratio of cAMP EC50 values, canine receptors
rAMY1R [2] = target: T1, rAMY1R (Rattus norvegicus, UniProt P32214+Q9JJ74); experiment: Species-specific cAMP assay, rAMY1R; settings: ratio of cAMP EC50 values, rat receptors
T1 sequence (P32214 25-516): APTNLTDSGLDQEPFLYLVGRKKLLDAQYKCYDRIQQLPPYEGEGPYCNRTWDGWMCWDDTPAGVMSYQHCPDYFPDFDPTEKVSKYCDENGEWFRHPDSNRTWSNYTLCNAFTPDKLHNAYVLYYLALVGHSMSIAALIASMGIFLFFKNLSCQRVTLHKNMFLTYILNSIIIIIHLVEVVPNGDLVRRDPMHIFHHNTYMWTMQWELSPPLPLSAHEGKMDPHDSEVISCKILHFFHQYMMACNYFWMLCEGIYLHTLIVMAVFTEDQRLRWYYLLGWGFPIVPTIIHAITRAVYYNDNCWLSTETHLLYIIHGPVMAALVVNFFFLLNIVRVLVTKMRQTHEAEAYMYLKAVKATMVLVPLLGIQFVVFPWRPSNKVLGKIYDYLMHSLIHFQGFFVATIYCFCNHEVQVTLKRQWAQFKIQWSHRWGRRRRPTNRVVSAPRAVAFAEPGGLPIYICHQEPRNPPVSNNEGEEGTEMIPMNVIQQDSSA
T1 sequence (Q9JJ74 27-148 partner): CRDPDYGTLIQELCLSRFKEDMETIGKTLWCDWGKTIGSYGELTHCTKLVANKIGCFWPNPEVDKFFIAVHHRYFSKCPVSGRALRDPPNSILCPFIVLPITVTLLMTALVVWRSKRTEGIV

rAMY3R = target: T2, rAMY3R (Rattus norvegicus, UniProt P32214+Q9JJ73); experiment: Species-specific cAMP assay, rAMY3R; settings: ratio of cAMP EC50 values, rat receptors
T2 sequence (P32214 25-479 isoform P32214-2 limits assumed): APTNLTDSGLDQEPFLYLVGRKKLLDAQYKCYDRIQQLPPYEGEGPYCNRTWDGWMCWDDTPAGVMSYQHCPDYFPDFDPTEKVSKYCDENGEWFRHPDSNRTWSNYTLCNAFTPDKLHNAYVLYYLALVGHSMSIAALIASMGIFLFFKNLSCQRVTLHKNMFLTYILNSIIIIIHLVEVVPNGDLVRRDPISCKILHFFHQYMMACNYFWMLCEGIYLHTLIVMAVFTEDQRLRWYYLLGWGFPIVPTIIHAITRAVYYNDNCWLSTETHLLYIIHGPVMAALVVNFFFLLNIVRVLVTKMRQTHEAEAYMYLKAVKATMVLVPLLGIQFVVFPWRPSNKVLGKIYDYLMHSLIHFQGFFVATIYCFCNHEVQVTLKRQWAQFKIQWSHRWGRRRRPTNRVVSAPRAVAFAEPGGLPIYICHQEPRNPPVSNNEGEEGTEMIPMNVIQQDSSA
T2 sequence (Q9JJ73 23-147 partner): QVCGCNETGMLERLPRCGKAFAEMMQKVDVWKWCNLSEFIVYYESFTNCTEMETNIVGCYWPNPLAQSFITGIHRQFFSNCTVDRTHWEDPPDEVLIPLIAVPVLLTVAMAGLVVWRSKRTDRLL

rAMY1R [3] = target: T1, rAMY1R; experiment: Whole-cell competition binding, rAMY1R; design: expressed in transfected cells; host or cells: BHK tk-ts 13 cells, transient, FuGENE 6; settings: IC50 for the CTR divided by that of the AMYR, rat receptors
hAMY3R = target: T3, hAMY3R (Homo sapiens, UniProt O60896+P30988); experiment: Whole-cell competition binding, hAMY3R; design: expressed in transfected cells; host or cells: BHK tk-ts 13, transient co-transfection; whole cells for the species-specific assays; settings: IC50 for the CTR divided by that of the AMYR, human receptors
T3 sequence (P30988 25-474): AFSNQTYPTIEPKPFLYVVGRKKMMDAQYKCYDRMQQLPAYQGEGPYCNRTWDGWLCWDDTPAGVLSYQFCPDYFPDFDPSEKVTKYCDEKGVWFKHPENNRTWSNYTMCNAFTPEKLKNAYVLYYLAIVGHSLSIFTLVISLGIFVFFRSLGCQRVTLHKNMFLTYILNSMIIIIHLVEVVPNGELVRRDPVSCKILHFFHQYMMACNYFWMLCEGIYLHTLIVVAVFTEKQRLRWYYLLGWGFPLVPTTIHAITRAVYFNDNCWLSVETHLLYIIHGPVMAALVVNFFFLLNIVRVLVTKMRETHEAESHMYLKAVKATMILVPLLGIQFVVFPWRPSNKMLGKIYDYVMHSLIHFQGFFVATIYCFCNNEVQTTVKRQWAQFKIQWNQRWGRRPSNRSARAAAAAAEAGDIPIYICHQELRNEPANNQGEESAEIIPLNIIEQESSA
T3 sequence (O60896 24-148 partner): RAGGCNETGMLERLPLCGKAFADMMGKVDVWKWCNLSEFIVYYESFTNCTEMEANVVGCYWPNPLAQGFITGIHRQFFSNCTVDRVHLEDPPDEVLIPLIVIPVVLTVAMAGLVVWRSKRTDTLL

Sequence of hAMY1R (O60894 27-148 partner, one chain of several): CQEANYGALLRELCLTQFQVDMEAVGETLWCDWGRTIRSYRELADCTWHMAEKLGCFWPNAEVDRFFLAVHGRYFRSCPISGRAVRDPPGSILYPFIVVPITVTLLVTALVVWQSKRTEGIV

## CC[C@H](C)[C@H](NC(=O)[C@H](C)NC(=O)CNC(=O)[C@H](Cc1ccccc1)NC(=O)[C@H](CC(N)=O)NC(=O)[C@@H]1CCCN1C(=O)[C@H](CO)NC(=O)[C@H](CO)NC(=O)[C@H](Cc1c[nH]cn1)NC(=O)[C@H](CCCNC(=N)N)NC(=O)[C@H](CC(C)C)NC(=O)[C@H](Cc1ccccc1)NC(=O)[C@H](CC(=O)O)NC(=O)[C@H](C)NC(=O)[C@H](CC(C)C)NC(=O)[C@H](CCCNC(=N)N)NC(=O)[C@H](CCC(N)=O)NC(=O)[C@@H](NC(=O)[C@H](C)NC(=O)[C@@H]1CSSC[C@H](NC(=O)[C@@H](N)CCCCNC(=O)CC[C@H](NC(=O)CC[C@H](NC(=O)CCCCCCCCCCCCCCCCCCC(=O)O)C(=O)O)C(=O)O)C(=O)N[C@@H](CC(N)=O)C(=O)N[C@@H]([C@@H](C)O)C(=O)N[C@@H](C)C(=O)N[C@@H]([C@@H](C)O)C(=O)N1)[C@@H](C)O)C(=O)N1CCC[C@H]1C(=O)N[C@@H](CO)C(=O)N[C@@H](CO)C(=O)N[C@H](C(=O)N[C@@H](CC(N)=O)C(=O)N[C@H](C(=O)NCC(=O)N[C@@H](CO)C(=O)N[C@@H](CCCNC(=N)N)C(=O)N[C@H](C(=O)N[C@@H](Cc1ccc(O)cc1)C(N)=O)[C@@H](C)O)C(C)C)[C@@H](C)O [NN1213]
cAMY1R
  Ratio CTR/AMY1R (canine, binding): 73
[1]
  terminal plasma half-life (T1/2), rabbit: approximately 50 h
Pharmacokinetics in rats
  bioavailability: ~40%
cCTR
  cCTR pEC50: 9.39
hAMY1R
  Ratio CTR/AMY1R (human, functional): 32
cAMY3R; cAMP HTRF, transiently transfected BHK cells, 30 min room temperature, five experiments
  cAMY3R pEC50: 9.74
cAMY3R
  Ratio CTR/AMY3R (canine, functional): 2
cAMY3R; listed as NN1213/peptide 21
  Ratio CTR/AMY3R (canine, functional): 3
rAMY1R [2]
  Ratio CTR/AMY1R (rat, functional): 336
rAMY3R
  Ratio CTR/AMY3R (rat, functional): 144
rAMY1R [3]
  Ratio CTR/AMY1R (rat, binding): 190
hAMY3R
  Ratio CTR/AMY3R (human, binding): 67
